The results in this text go back to patent US12583841B2, “Tetrahydropyrrolocyclic compound and application thereof” (Breakthrough Pharmaceuticals Inc., priority 2021, dated 2026).

One test has as its target T1, OX1R (Homo sapiens, UniProt O43613).
T1 construct: expressed in transfected cells
T1 sequence (O43613 1-425): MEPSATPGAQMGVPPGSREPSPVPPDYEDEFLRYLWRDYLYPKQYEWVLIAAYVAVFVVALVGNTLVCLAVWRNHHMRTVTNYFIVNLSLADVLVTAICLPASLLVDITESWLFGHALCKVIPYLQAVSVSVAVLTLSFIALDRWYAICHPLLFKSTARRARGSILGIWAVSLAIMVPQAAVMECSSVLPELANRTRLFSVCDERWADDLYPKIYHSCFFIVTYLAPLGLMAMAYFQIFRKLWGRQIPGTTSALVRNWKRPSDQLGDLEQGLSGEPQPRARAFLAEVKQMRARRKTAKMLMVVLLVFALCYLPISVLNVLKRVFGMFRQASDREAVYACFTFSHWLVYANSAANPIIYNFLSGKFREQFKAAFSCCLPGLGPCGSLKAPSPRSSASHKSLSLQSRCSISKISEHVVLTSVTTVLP
The experiment in a line: FLIPR intracellular calcium antagonism test, HEK293-OX1R cells. It is filed as cell-based. The following applies: Orexin A at EC70, read-out: hOXIR IC50. The procedure: (§1) The change of intracellular calcium signal was detected by FLIPR, and the antagonism of the compounds on OX1R and OX2R receptors was evaluated by using IC50 value of the compounds as an index.
(§2) • Cell lines: Transfected HEK293-OX1R and HEK293-OX2R stable cell lines • HEK293-OX1R cell culture medium (DMEM, Invitrogen #11960-044, 10% serum Gibco #10099141, L-Glutamine 1×, Gibco #25030, sodium pyruvate 1×, Gibco #11360, Geneticin 300 μg/mL, Gibco #10131) • HEK293-OX2R cell culture medium (DMEM, Invitrogen #11960-044, 10% serum Gibco #10099141, L-Glutamine 1×, Gibco #25030, sodium pyruvate 1×, Gibco #11360, Geneticin 300 μg/mL, Gibco #10131, Blasticin 2 μg/mL, Invitrogen #R21001)
(§3) Experimental Steps and Methods: • a) Cell seeding (HEK293-OX1R and HEK293-OX2R cells) • 1) preheating the culture medium, trypsin and DPBS under water bath at 37° C.; pipetting and removing the medium of cell culture and washing same with 10 mL of DPBS; • 2) adding the preheated trypsin to a culture flask, rotating the culture flask so that the trypsin evenly covered the culture flask, and putting the culture flask in a 37° C., 5% CO2 incubator for digestion for 1-2 min; • 3) suspending the cells with 10-15 mL of medium for each T150 and centrifuging at 800 rpm for 5 min; resuspending the cells with 10 mL of medium, pipetting 1 mL of the cell suspension and counting with Vi-cell; • 4) diluting OX1R cells with medium to 5×10^5 cells/mL, and diluting OX2R cells with medium to 4×10^5 cells/mL, and adding the diluted cells to 384 plate (Greiner.781946) with a multi-channel pipette (50 μL/well, 25000 cells/well for OX1R cells, 20000 cells/well for OX2R cells); placing the cell plate in a 37° C., 5% CO2 incubator overnight. • b) Compound loading: • 1) diluting the compound to 20 mM with DMSO, 3-fold dilution, 8 gradients, duplicate wells, and adding same to a compound plate with an Echo liquid handler; then adding 20 μL of buffer to maintain the final concentration of DMSO of 0.1%. • c) FLIPR experiment: • 1) washing off the cell culture medium in the 384 plate with a vacuum pump, adding […] Direct fluorescent dye, incubating in 37° C., 5% CO2 incubator for 1 h, and balancing at room temperature for another 10 min. • 2) EC50 test: manually diluting Orexin A on ice, 3-fold dilution, 8 gradients, duplicate wells; preparing a DMSO plate and keep the DMSO concentration to be 0.5%; putting the cell plate, OrexinA plate, and DMSO plate in FLIPR respectively, and reading the fluorescence value. • 3) calculating the EC70 value based on the EC50 value of Orexin A; preparing a 5×EC70 solution, adding same to 384 compound plate with a multi-channel pipette, and storing on ice; • 4) putting the compound plate, 5×EC70 plate, cell plate, and FLIPR tip in sequence in FLIPR, running the program, and reading the fluorescence value. • d) Data analyzing: using Prism5.0 to analyze the data, and calculating the IC50 value of the compound.
For orientation: A change in cytosolic calcium serves as a functional read-out for many receptors and channels.

Another test deals with T2, OX2R (Homo sapiens, UniProt O43614).
T2 construct: expressed in transfected cells
T2 sequence (O43614 1-444): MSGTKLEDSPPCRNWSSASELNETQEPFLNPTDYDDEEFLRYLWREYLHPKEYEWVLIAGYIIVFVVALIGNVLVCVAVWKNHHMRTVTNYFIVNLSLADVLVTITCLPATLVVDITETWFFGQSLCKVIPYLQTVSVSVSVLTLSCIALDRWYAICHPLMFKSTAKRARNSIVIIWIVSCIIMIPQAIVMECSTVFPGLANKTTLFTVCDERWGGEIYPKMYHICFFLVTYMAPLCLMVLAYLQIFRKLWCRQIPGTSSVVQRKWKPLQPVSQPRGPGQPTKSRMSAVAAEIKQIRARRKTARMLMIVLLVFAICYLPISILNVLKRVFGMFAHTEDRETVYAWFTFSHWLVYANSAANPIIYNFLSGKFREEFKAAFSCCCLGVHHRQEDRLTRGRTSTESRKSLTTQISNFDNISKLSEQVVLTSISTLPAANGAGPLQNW
The experiment in a line: FLIPR intracellular calcium antagonism test, HEK293-OX2R cells. The settings on record: Orexin A at EC70, read-out: hOX2R IC50. It is filed as cell-based. The procedure: as §1, §2, §3

The IC50 is the midpoint of a concentration-inhibition curve.

For the compound `COc1ccc2nc([C@@H]3[C@H]4C[C@H]4CN3C(=O)c3ccccc3-n3nccn3)[nH]c2c1` [Compound 1], the IC50 is above 10000 nM on OX1R and 25 nM on OX2R.
As to `COc1ccc2nc([C@@H]3C[C@H]4C[C@H]4N3C(=O)c3ccccc3-n3nccn3)[nH]c2c1` [Compound 2], the IC50 at OX1R is above 10000 nM; on OX2R, 72 nM.
Taken in the same sequence, the figures for `COc1ccc(-n2nccn2)c(C(=O)N2C[C@@H]3C[C@@H]3[C@H]2c2nc3ccc(OC)cc3[nH]2)c1` [Compound 4] were 462 nM and 64 nM.
Turning to `COc1ccc2nc([C@@H]3[C@H]4C[C@H]4CN3C(=O)c3cc(C)ccc3-n3nccn3)[nH]c2c1` [Compound 5], the IC50 was 337 nM on OX1R and 96 nM at OX2R.
Take `COc1ccc2nc([C@@H]3[C@H]4C[C@H]4CN3C(=O)c3c(F)cccc3-n3nccn3)[nH]c2c1` [Compound 6]: the results for the IC50 at OX1R and on OX2R were 1420 nM and 299 nM, respectively.
For `COc1ccc2nc([C@@H]3C[C@H]4C[C@H]4N3C(=O)c3cc(C)ccc3-n3nccn3)[nH]c2c1` [Compound 7], in that order: 877 nM and 24 nM.
Taken in the same sequence, the figures for `COc1ccc2nc([C@@H]3C[C@H]4C[C@H]4N3C(=O)c3ccc(F)cc3-n3nccn3)[nH]c2c1` [Compound 9] were 3170 nM and 42 nM.
Taken in the same sequence, the figures for `COc1ccc2[nH]c([C@@H]3C[C@H]4C[C@H]4N3C(=O)c3ccc(C)cc3-n3nccn3)nc2c1` [Compound 10] were 710 nM and 17 nM.
With `COc1ccc2[nH]c([C@@H]3C[C@H]4C[C@H]4N3C(=O)c3cc(F)ccc3-n3nccn3)nc2c1` [Compound 11], the IC50 on OX1R was 3600 nM; at OX2R, 33 nM.
Taken in the same sequence, the figures for `COc1ccc2[nH]c([C@@H]3C[C@H]4C[C@H]4N3C(=O)c3c(F)cccc3-n3nccn3)nc2c1` [Compound 12] were 1280 nM and 81 nM.
Turning to `COc1ccc2[nH]c([C@@H]3C[C@H]4C[C@H]4N3C(=O)c3cc(C)ccc3-c3ncccn3)nc2c1` [Compound 13], the IC50 on OX1R was determined as 2440 nM; on OX2R, 60 nM.
As for `COc1ccc2[nH]c([C@@H]3C[C@H]4C[C@H]4N3C(=O)c3cc(Cl)ccc3-n3nccn3)nc2c1` [Compound 14], the IC50 at OX1R was determined as 1040 nM; on OX2R, 30 nM.
